Results from US8920559B2, “Screening for solid forms by ultrasound crystallization and cocrystallization using ultrasound” (Aptuit (West Lafayette), LLC, priority 2004, dated 2014).

How the values were obtained:
[1] = White, Amber and Yellow polymorphic forms of WAY; literature (Yeadon 1985; Xiaorong He 2000); cited from earlier work
[2] = cocrystal compared with crystals of fluoxetine HCl
[3] = Form I vs Form II, room temperature; Zhang et al. 2002; cited from earlier work

CC(=O)Nc1ccc(C)cc1[N+](=O)[O-] [amber form, 4-methyl-2-nitroacetanilide]
relative stability of the three forms [1]: least stable

CNCCC(Oc1ccc(C(F)(F)F)cc1)c1ccccc1.Cl.O=C(O)c1ccccc1 (centres unmarked) [fluoxetine HCl:benzoic acid]
dissolution rate [2]: lower dissolution rate

Cc1ccnc(NS(=O)(=O)c2ccc(N)cc2)n1 [sulfamerazine Form II, Sulfamerazine]
relative stability of polymorphic forms [3]: most stable form at room temperature

CC(=O)Nc1ccc(C)cc1[N+](=O)[O-] [white form, 4-methyl-2-nitroacetanilide]
relative stability of the three forms [1]: most stable form

CC(=O)Nc1ccc(C)cc1[N+](=O)[O-] [yellow form, 4-methyl-2-nitroacetanilide]
relative stability of the three forms [1]: more stable than the amber form
